According to PubChem BioAssay (NCI):
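1) Cells in 96-well plates. 2) Compound, 48 h, 5 concentrations. 3) Linear interpolation between surrounding doses. 4) Unreached endpoint = highest concentration. At the TGI there is no net growth.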

Columns and labels:
Assay in all cases: NCI tumour cell line growth inhibition, 48 h
[1] = tested on: A498 renal
[2] = tested on: A549 NSCLC
[3] = tested on: ACHN renal
[4] = tested on: CAKI-1 renal
[5] = tested on: CCRF-CEM leukemia
[6] = tested on: COLO 205 colon
[7] = tested on: DLD-1 colon
[8] = tested on: DMS 114 small cell lung
[9] = tested on: DMS 273 small cell lung
[10] = tested on: EKVX NSCLC
[11] = tested on: HCC-2998 colon
[12] = tested on: HCT-116 colon
[13] = tested on: HCT-15 colon
[14] = tested on: HL-60(TB) leukemia
[15] = tested on: HOP-62 NSCLC
[16] = tested on: HOP-92 NSCLC
[17] = tested on: HT29 colon
[18] = tested on: IGROV1 ovarian
[19] = tested on: K-562 leukemia
[20] = tested on: KM12 colon
[21] = tested on: KM20L2 colon
[22] = tested on: LOX IMVI melanoma
[23] = tested on: LXFL 529 NSCLC
[24] = tested on: M14 melanoma
[25] = tested on: M19-MEL melanoma
[26] = tested on: MOLT-4 leukemia
[27] = tested on: NCI-H226 lung
[28] = tested on: NCI-H23 lung
[29] = tested on: NCI-H460 lung
[30] = tested on: NCI-H522 lung
[31] = tested on: OVCAR-4 ovarian
[32] = tested on: OVCAR-5 ovarian
[33] = tested on: OVCAR-8 ovarian
[34] = tested on: RPMI-8226 leukemia
[35] = tested on: RXF 393 renal
[36] = tested on: SF-268 CNS
[37] = tested on: SF-295 CNS
[38] = tested on: SF-539 CNS
[39] = tested on: SK-MEL-2 melanoma
[40] = tested on: SK-MEL-28 melanoma
[41] = tested on: SK-MEL-5 melanoma
[42] = tested on: SK-OV-3 ovarian
[43] = tested on: SN12C renal
[44] = tested on: SNB-19 CNS
[45] = tested on: SNB-75 CNS
[46] = tested on: SNB-78 CNS
[47] = tested on: SR leukemia
[48] = tested on: SW-620 colon
[49] = tested on: TK-10 renal
[50] = tested on: U251 CNS
[51] = tested on: UACC-257 melanoma
[52] = tested on: UACC-62 melanoma
[53] = tested on: UO-31 renal
[54] = tested on: XF 498 CNS
[55] = tested on: 786-0 renal
[56] = tested on: BT-549 breast
[57] = tested on: DU-145 prostate
[58] = tested on: HS 578T breast
[59] = tested on: MALME-3M melanoma
[60] = tested on: MCF7 breast
[61] = tested on: MDA-MB-231 breast
[62] = tested on: MDA-MB-435
[63] = tested on: MDA-N
[64] = tested on: NCI/ADR-RES ovarian
[65] = tested on: OVCAR-3 ovarian
[66] = tested on: PC-3 prostate
[67] = tested on: T-47D breast

O=C(NC1C=Nc2ccc([N+](=O)[O-])cc2NC1=O)c1cc(Cl)cc([N+](=O)[O-])c1 (stereo unspecified)
TGI [1]: > 100 µM
TGI [2]: > 100 µM
TGI [3]: > 100 µM
TGI [4]: > 100 µM
TGI [5]: > 100 µM
TGI [6]: > 100 µM
TGI [7]: > 100 µM
TGI [8]: 84.2 µM
TGI [9]: > 100 µM
TGI [10]: > 100 µM
TGI [11]: > 100 µM
TGI [12]: > 100 µM
TGI [13]: > 100 µM
TGI [14]: > 100 µM
TGI [15]: > 100 µM
TGI [16]: > 100 µM
TGI [17]: > 100 µM
TGI [18]: > 100 µM
TGI [19]: > 100 µM
TGI [20]: > 100 µM
TGI [21]: > 100 µM
TGI [22]: > 100 µM
TGI [23]: > 100 µM
TGI [24]: > 100 µM
TGI [25]: > 100 µM
TGI [26]: > 100 µM
TGI [27]: > 100 µM
TGI [28]: > 100 µM
TGI [29]: > 100 µM
TGI [30]: 67.8 µM
TGI [31]: > 100 µM
TGI [32]: > 100 µM
TGI [33]: > 100 µM
TGI [34]: > 100 µM
TGI [35]: > 100 µM
TGI [36]: > 100 µM
TGI [37]: > 100 µM
TGI [38]: > 100 µM
TGI [39]: > 100 µM
TGI [40]: > 100 µM
TGI [41]: > 100 µM
TGI [42]: > 100 µM
TGI [43]: > 100 µM
TGI [44]: > 100 µM
TGI [45]: > 100 µM
TGI [46]: > 100 µM
TGI [47]: > 100 µM
TGI [48]: > 100 µM
TGI [49]: > 100 µM
TGI [50]: > 100 µM
TGI [51]: > 100 µM
TGI [52]: > 100 µM
TGI [53]: > 100 µM
TGI [54]: > 100 µM

CN1C(=O)C(CC(=O)O)NC1=S (stereo unspecified)
TGI [55]: > 100 µM
TGI [1]: > 100 µM
TGI [2]: > 100 µM
TGI [3]: > 100 µM
TGI [56]: > 100 µM
TGI [4]: > 100 µM
TGI [5]: > 100 µM
TGI [6]: > 100 µM
TGI [57]: > 100 µM
TGI [10]: > 100 µM
TGI [11]: > 100 µM
TGI [12]: > 100 µM
TGI [13]: > 100 µM
TGI [14]: > 100 µM
TGI [15]: > 100 µM
TGI [16]: > 100 µM
TGI [58]: > 100 µM
TGI [17]: > 100 µM
TGI [18]: > 100 µM
TGI [19]: > 100 µM
TGI [20]: > 100 µM
TGI [22]: > 100 µM
TGI [24]: > 100 µM
TGI [59]: > 100 µM
TGI [60]: > 100 µM
TGI [61]: > 100 µM
TGI [62]: > 100 µM
TGI [63]: > 100 µM
TGI [26]: > 100 µM
TGI [28]: > 100 µM
TGI [29]: > 100 µM
TGI [30]: > 100 µM
TGI [64]: > 100 µM
TGI [65]: > 100 µM
TGI [32]: > 100 µM
TGI [33]: > 100 µM
TGI [66]: > 100 µM
TGI [34]: > 100 µM
TGI [35]: > 100 µM
TGI [36]: > 100 µM
TGI [37]: > 100 µM
TGI [38]: > 100 µM
TGI [39]: > 100 µM
TGI [40]: > 100 µM
TGI [41]: > 100 µM
TGI [42]: > 100 µM
TGI [43]: > 100 µM
TGI [44]: > 100 µM
TGI [45]: > 100 µM
TGI [47]: > 100 µM
TGI [48]: > 100 µM
TGI [67]: > 100 µM
TGI [49]: > 100 µM
TGI [50]: > 100 µM
TGI [51]: > 100 µM
TGI [52]: > 100 µM
TGI [53]: > 100 µM
